Measured values from article PMC12040169 (PLOS Biology, 2025).

Assay: in vitro
Settings: human, hela cells

Row | Structure (SMILES) | viability at 28.5 h, 10 µM
1 | CN(C)C(=O)OCCn1c(=O)oc2cc(Cl)ccc21 [CBK306455] | 81.9%

Same assay, conditions: human, hela cells, % viability

Row | Structure (SMILES) | viability at 28.5 h, 10 µM
2 | Cc1n[nH]c(-c2ccccc2NS(=O)(=O)c2cnn(C(C)C)c2)n1 [CBK306377] | 84.1%
3 | CC(=O)NCC1CCCN(Cc2c[nH]nc2-c2c(F)cccc2F)C1 (stereo not drawn) [CBK306382] | 99.6%
4 | O=C1NC2(CCC2)C(=O)N1Cc1nn(-c2ccccc2)c2c1CCC2 [CBK306383] | 95.6%
5 | O=C(NCCC(=O)N1CCCCC1)c1cccc(OCc2cscn2)c1 [CBK306384] | 98.5%
6 | Cc1cc(C(=O)NC2(C#N)CCSCC2)n(C)n1 [CBK306386] | 90.9%
7 | CC(c1ccc(Cl)cc1Cl)N(C)C(=O)Cn1cnc2c1CCCC2 (stereo not drawn) [CBK306387] | 88%
8 | O=C(CCc1nc(=O)c2c3c(sc2[nH]1)CCC3)N1CCCCCC1 [CBK306388] | 90.4%
9 | O=C1CCC(=O)N1CCN1CC(O)CC1c1cc(F)ccc1F (stereo not drawn) [CBK306390] | 92.8%
10 | NC(=O)Nc1ccc(C(=O)N2CCN(c3ccccc3)CC2)cc1 [CBK306392] | 101%
11 | Cc1cc(C)c2c(OCC(=O)NC(C)C)nn(C)c2n1 [CBK306393] | 87.4%
12 | Cn1cc(-c2nc(C3CCCCCN3C(=O)c3cc(Cl)c[nH]3)no2)cn1 (stereo not drawn) [CBK306396] | 86.4%
13 | Cc1c(C(=O)N2CC(n3cc(C(C)(C)O)nn3)C2)sc2cccc(F)c12 [CBK306398] | 91.4%
14 | Cn1nccc1C1CCN(Cc2ccc(Oc3cnccn3)cc2)CC1 [CBK306400] | 104%
15 | Cc1ccc(-n2nc(C(=O)NC3(C#N)CCSC3)cc2C)cc1 (stereo not drawn) [CBK306403] | 86.9%
16 | CC(NC1CCCN(c2ccc(C#N)cc2)C1=O)c1cncc(F)c1 (stereo not drawn) [CBK306404] | 90.7%
17 | CC(C)(C)C1CCC(OC(=O)Cn2nnc3ccccc3c2=O)CC1 (stereo not drawn) [CBK306408] | 88.9%
18 | CC(C)c1nc(NCCc2nnc3n2CCC3)nc(N(C)C)n1 [CBK306409] | 89.1%
19 | COCC1CCN(c2ncc(C#N)cc2Cl)CC1 [CBK306410] | 61.1%
20 | CC(=O)NC(CCC(N)=O)C(=O)N1CC2(CCCC2)c2c(F)cccc21 (stereo not drawn) [CBK306412] | 82.9%
21 | c1cnn(C2CCN(Cc3ccc(Oc4cnccn4)cc3)CC2)c1 [CBK306417] | 85.7%
22 | N#Cc1nccnc1NCc1ccccc1CN1CCCC1CO (stereo not drawn) [CBK306418] | 102%
23 | CCn1c(SC(C)C(N)=O)nc2ccc(Br)cc2c1=O (stereo not drawn) [CBK306424] | 74.6%
24 | CC(C)c1nsc(NCCc2nnc3n2CCCC3)n1 [CBK306425] | 92.4%

Row | Structure (SMILES) | viability at 28.5 h, 10 µM
25 | CC(C)c1nc(NCCc2nnc3n2CCCC3)nc(N(C)C)n1 [CBK306426] | 112%
26 | Cc1nnnn1-c1cc(NC(=O)NCCc2ccnn2C)ccc1F [CBK306428] | 87.8%
27 | CCOC(=O)c1cnn(C2CCCN(c3cccc(C#N)n3)C2)c1 (stereo not drawn) [CBK306430] | 81.5%
28 | Cc1cnc(CN2CCNC(=O)C2c2ccccc2C(F)(F)F)o1 (stereo not drawn) [CBK306431] | 85.4%
29 | CCNC(=O)CNc1cc(C#N)ccc1C(F)(F)F [CBK306432] | 86.5%
30 | CN1CCCc2ccc(S(=O)(=O)Nc3ccc4nncn4c3)cc21 [CBK306435] | 98.6%
31 | CN(CC(O)CN1CCOCC1)C(=O)c1cc2sccc2[nH]1 (stereo not drawn) [CBK306437] | 95.8%
32 | Cc1csc(N2CCC(Nc3cc(CO)ccc3Cl)CC2)n1 [CBK306440] | 89.7%
33 | CNC(=O)CN1CCN(c2cc(C#N)ccc2C(F)(F)F)CC1=O [CBK306441] | 93.6%
34 | COC(=O)c1ccc(N2CCN(Cc3cnoc3C)C(C)C2)cc1 (stereo not drawn) [CBK306442] | 109%
35 | CC(C)c1nccn1CC(=O)N(C)C(C)c1ccc(F)c(F)c1 (stereo not drawn) [CBK306443] | 94.5%
36 | CC(C)(C)n1cc(NC2CCN(c3ccc(C#N)cc3)C2=O)cn1 (stereo not drawn) [CBK306445] | 85.7%
37 | Cc1cc(-c2nnc(NCc3ccnn3C)o2)c(C)o1 [CBK306446] | 84.6%
38 | CCc1cc(=O)[nH]c(-c2ccc(N3CC(C(N)=O)CCC3C)nc2)n1 (stereo not drawn) [CBK306448] | 93.1%
39 | CSc1nnc(CCCNc2cccc(C#N)n2)n1CC(C)C [CBK306449] | 96.8%
40 | O=c1c2cc(Br)cc(F)c2ncn1CCC1CCCO1 (stereo not drawn) [CBK306451] | 95.9%
41 | O=C(c1ncccc1O)N1CC(O)CC1c1cc(F)ccc1F (stereo not drawn) [CBK306452] | 97.9%
42 | Cc1occc1SCC(=O)Nc1ccc(CN2CCOCC2)cc1 [CBK306453] | 89.9%
43 | Cn1nccc1CNc1ncn(CC(=O)N2CCCCCC2)n1 [CBK306454] | 90%
44 | CS(=O)(=O)NC1CCCN(c2ccc3ccccc3n2)C1 (stereo not drawn) [CBK306457] | 99.7%
45 | Cc1ccc(CS(=O)(=O)N(CC(C)C)C2CC2)c(F)c1 [CBK306460] | 82.9%
46 | Cc1nc(-c2ccc(N3CC(C(N)=O)CCC3C)nc2)[nH]c(=O)c1C (stereo not drawn) [CBK306463] | 83.9%
47 | Cc1cc2c(N3CCCC(NS(C)(=O)=O)C3)nccc2o1 (stereo not drawn) [CBK306464] | 93.4%

Row | Structure (SMILES) | viability at 28.5 h, 10 µM
48 | CC(C)(C)OC(=O)N1CCN(Cc2nc(-c3ccccc3)no2)CC1 [CBK306465] | 99.8%
49 | COc1ccccc1CN(C)C(C)C(=O)Nc1sccc1C(N)=O (stereo not drawn) [CBK306466] | 109%
50 | CSCCN(C)C(=O)c1nnn(Cc2ccc(F)cc2F)c1C [CBK306468] | 93.2%
51 | COCC(C)NC(=O)c1cc(-c2cccs2)nc2onc(C)c12 (stereo not drawn) [CBK306473] | 104%
52 | CC(NC(=O)N1CCSCC1)c1cccc(Br)c1 (stereo not drawn) [CBK306475] | 86.2%
53 | CCC(=O)Nc1ccc(-c2csc(N3CCCC(C)C3)n2)cc1 (stereo not drawn) [CBK306478] | 83.3%
54 | CCNC(=O)CN(CC)S(=O)(=O)c1cccc(C#N)c1 [CBK306481] | 90.1%
55 | CCCn1c(SCC(=O)N2CCOCC2)nc2cc(Cl)ccc2c1=O [CBK306482] | 97.6%
56 | COCC1(C)NC(=O)N(Cc2nn(-c3ccccc3)c3c2CCC3)C1=O (stereo not drawn) [CBK306483] | 88.8%
57 | CCc1cc(=O)[nH]c(-c2ccc(N(C)CC(C)O)nc2)n1 (stereo not drawn) [CBK306484] | 88.4%
58 | O=C(NS(=O)(=O)c1cccc(-c2nnco2)c1)C1C2C3CCC(C3)C12 (stereo not drawn) [CBK306488] | 89%
59 | CCC(=O)Nc1ccc(-c2csc(N3CCC(C)CC3)n2)cc1 [CBK306490] | 111%
60 | CC(C)(C)C(O)CNc1ncnc2ccc(S(C)(=O)=O)cc12 (stereo not drawn) [CBK306494] | 76.8%
61 | CCC(CC)CNc1ncnc2ccc(S(C)(=O)=O)cc12 [CBK306495] | 90.9%
62 | COCc1nc(C)c(C(=O)NC2CCCN(c3ccn(C)n3)C2=O)s1 (stereo not drawn) [CBK306497] | 92.2%
63 | CC1Cc2ccccc2N1CCNC(=O)Cc1cn2ccsc2n1 (stereo not drawn) [CBK306499] | 87.6%
64 | Cc1c(C(=O)N(C)Cc2nc3ccccc3s2)nnn1C1CCNCC1 [CBK306501C] | 85.9%
65 | CCOc1ccc(-c2ccnc(C)n2)cc1C(=O)O [CBK306505] | 104%
66 | O=C(O)CCn1cc(CN2CCOc3ccccc3C2)cn1 [CBK306507] | 101%
67 | Cc1cc(=O)c2ccccc2n1CC(=O)N1CCNC(=O)C1C (stereo not drawn) [CBK306511] | 109%
68 | COc1ccc2c(c1)cc(C(=O)N1CCCn3cncc3C1)n2C [CBK306516] | 96.1%
69 | Cn1ncc(N2CCC(CNC(=O)COc3ccc(Cl)cc3)C2)cc1=O (stereo not drawn) [CBK306517] | 79%
70 | CSc1nnc(CC2CCN(C(=O)Cn3nnnc3N)CC2)n1C [CBK306520] | 97.6%

Row | Structure (SMILES) | viability at 28.5 h, 10 µM
71 | O=C(c1ccc(NCCCCO)nc1)N1CCC(N2CCOCC2)CC1 [CBK306521] | 96%
72 | CN1CC(c2ccccc2)CC2(CCN(CCCn3cnnn3)CC2)C1 (stereo not drawn) [CBK306522] | 95%
73 | CCn1c(C)cc(C(=O)NC2CCN(c3ncccc3C#N)CC2)c1C [CBK306524] | 87.8%
74 | CCC(NC(=O)Nc1cc(N2CCOCC2)ccc1Cl)c1nc(C)no1 (stereo not drawn) [CBK306526] | 87.9%
75 | Cc1cccc(=O)n1CCC(=O)N1CCCCC1CN1CCOCC1 (stereo not drawn) [CBK306528] | 109%
76 | COCCN(Cc1cnn(C)c1)C(=O)Nc1cccc2nc(C)ccc12 [CBK306529] | 106%
77 | Cc1cnc(C)c(N2CCN(C(=O)NCCSc3nncn3C)CC2)n1 [CBK306531] | 92.9%
78 | Cc1cc(O)n2nc(CC(=O)NCCCn3c(C)cccc3=O)nc2n1 [CBK306532] | 97.1%
79 | CC(C)c1cc(C(=O)N2CCNC(c3ccccc3)C2)nc2ncnn12 (stereo not drawn) [CBK306533] | 91.9%
80 | Cc1nc(C)c(C(=O)Nc2nn(C)c3cccc(N4CCOCC4)c23)o1 [CBK306534] | 83.8%
81 | CCn1c(CC2CCN(C(=O)CCCn3cnnn3)CC2)nn(C)c1=O [CBK306537] | 102%
82 | CCCOC1CCCN(C(=O)c2ccc(-c3ccc(Cl)cn3)cc2)C1 (stereo not drawn) [CBK306540] | 89.5%
83 | COC1CCCN(Cc2cncn2C2CCCCC2)C1 (stereo not drawn) [CBK306542] | 101%
84 | Cc1ccccc1N1CCC(CNC(=O)CCc2ccnn2C)C1 (stereo not drawn) [CBK306543] | 89%
85 | CC(C)CC(NC(=O)N1CCOc2ccc(Cl)cc2C1)c1ncnn1C (stereo not drawn) [CBK306544] | 115%
86 | Cc1cccn2c(CN3CCCC(O)C3)c(C(=O)N3CCOCC3)nc12 (stereo not drawn) [CBK306545] | 72.5%
87 | Cc1cccn2c(CN3CCC(O)CC3)c(C(=O)N3CCOCC3)nc12 [CBK306546] | 104%
88 | O=C(Cc1ccsc1)N1CCn2nc(C(O)Cc3ccccc3)cc2C1 (stereo not drawn) [CBK306547] | 95.9%
89 | CCCc1nc(C(=O)NC2CC(=O)N(CCc3ccc(F)cc3)C2)cs1 (stereo not drawn) [CBK306548] | 105%
90 | Cc1cc(C)n(CCCC(=O)N2CCOCC(O)(CN3CCCC3)C2)n1 (stereo not drawn) [CBK306550] | 101%
91 | CC(NC(=O)CCc1cc2n(n1)CCNC2)c1cn2ccsc2n1 (stereo not drawn) [CBK306551] | 91.2%
92 | CC(C)c1cc(C(=O)N[C@@H]2CCOC[C@H]2Oc2ccc(CO)cc2)on1 [CBK306554] | 101%
93 | COC(CNC(=O)N(C)Cc1nncn1C(C)C)c1cccs1 (stereo not drawn) [CBK306556] | 90.8%
